Results published in US20060246149A1, “Antimicrobial pigments” (priority 2003, published 2006).

Tests used:
Assay in all cases: challenge test, germ count by Agar plates method
Format in all cases: cell-based
Settings in all cases: 8% aqueous suspension
Escheria coli ATCC8739 = system: Escheria coli ATCC8739
Description: (§1) A standard procedure to measure the anti-microbial activity of substances was used (challenge tests). A suspension of test organisms (10^5 to 10^6 germs/ml) is inoculated into a recipient containing already the substance to be tested. Samples of the inoculated suspension are taken and the number of germs is measured thanks to the Agar plates method. Germ counts is performed at t=0, t=24 h after the inoculation, t=48 h after the inoculation, t=7 days after the inoculation, t=14 days after the inoculation.
(§2) Sterile water containing 8% w/w of treated and untreated carriers were each investigated.

[1] = system: Staphylococcus aureus ATCC 6538
Description: as §1, §2

[2] = system: Pseudomonas aeruginosa ATCC 9027
Description: as §1, §2

[3] = system: Candida albicans ATCC 10231
Description: as §1, §2

silver oxide [0.02% Ag2O]
0 germs/ml: Germs Number/ml after 24 h (Escheria coli ATCC8739; 24 h) | Germs Number/ml after 48 h (Escheria coli ATCC8739; 48 h) | Germs Number/ml after 7 d (Escheria coli ATCC8739; 7 d) | Germs Number/ml after 14 d (Escheria coli ATCC8739; 14 d) | Germs Number/ml after 24 h ([1]; 24 h) | Germs Number/ml after 48 h ([1]; 48 h) | Germs Number/ml after 14 d ([1]; 14 d) | Germs Number/ml after 24 h ([2]; 24 h) | Germs Number/ml after 48 h ([2]; 48 h) | Germs Number/ml after 7 d ([2]; 7 d) | Germs Number/ml after 14 d ([2]; 14 d) | Germs Number/ml after 48 h ([3]; 48 h) | Germs Number/ml after 7 d ([3]; 7 d) | Germs Number/ml after 14 d ([3]; 14 d)
